Test results published in patent US10487093B2, “Heterocyclic compounds, in particular 2-oxo-4,4,5,5,6,6,7,7-octahydrobenzoxazole derivatives, and their use as antibacterial compounds” (priority 2016, dated 2019).
In brackets after ≈: the same amount, converted by molar mass.

Assays:
[1] = tested on: Enterobacter cloacae NCTC 13406; test: MIC, broth microdilution (CLSI) versus planktonic bacteria; format: cell-based; details: NCTC13406; Enterobacter cloacae NCTC 13406; 16-20 h; mode of three independent experiments; read-out: MIC, Ecl NCTC 13406
E. coli MG1655 = test: as above; format: cell-based, Escherichia coli; details: Escherichia coli, MG1655, read-out: MIC, Ec MG1655 WT
E. coli NCTC 13476 = test: as above; format: cell-based; details: NCTC13476; Escherichia coli NCTC 13476; 16-20 h; mode of three independent experiments; read-out: MIC, Ec NCTC 13476
E. coli MG1655 D87G = format: cell-based, Escherichia coli; details: compared to the isogenic parent strain E. coli MG1655; D87G mutation on DNA gyrase subunit GyrA
[2] = tested on: Haemophilus influenzae ATCC 49247; test: MIC, broth microdilution (CLSI) versus planktonic bacteria; format: cell-based; details: ATCC49247; Haemophilus influenzae ATCC 49247; 16-20 h; mode of three independent experiments; read-out: MIC, Hi ATCC 49247
[3] = tested on: fluoroquinolone-resistant Enterococcus faecium ATCC 700221; test: as above; format: cell-based; details: ATCC700221, 16-20 h, mode of three independent experiments, read-out: MIC, Efm ATCC 700221
[4] = tested on: Enterococcus faecium ATCC 19434; test: as above; format: cell-based; details: ATCC19434, 16-20 h, mode of three independent experiments, read-out: MIC, Efm ATCC 19434
[5] = tested on: Streptococcus pneumoniae ATCC 49619; test: as above; format: cell-based; details: ATCC49619; Streptococcus pneumoniae ATCC 49619; 16-20 h; mode of three independent experiments; read-out: MIC, Sp ATCC 49619
[6] = tested on: Acinetobacter baumannii NCTC 13420; test: as above; format: cell-based; details: NCTC13420; Acinetobacter baumannii NCTC 13420; 16-20 h; mode of three independent experiments; read-out: MIC, Ab NCTC 13420
[7] = tested on: Enterococcus faecalis ATCC 29212; test: as above; format: cell-based; details: ATCC29212, 16-20 h, mode of three independent experiments, read-out: MIC, Ef ATCC 29212
[8] = tested on: human hepatic cell line (HepG2 ATCC HB-8065); test: Human cell viability assay (CellTiter-Glo); details: Homo sapiens, HepG2, 24 h, read-out: IC50 (μg/mL) HepG2
E. coli ATCC BAA-2452 = test: MIC, broth microdilution (CLSI) versus planktonic bacteria; format: cell-based; details: Escherichia coli ATCC BAA-2452; 16-20 h; mode of three independent experiments; read-out: MIC, Ec ATCC BAA 2452
E. coli MG1655 S83L = format: cell-based, Escherichia coli; details: compared to the isogenic parent strain E. coli MG1655; S83L mutation on DNA gyrase subunit GyrA
[9] = tested on: Acinetobacter baumannii ATCC 19606; test: MIC, broth microdilution (CLSI) versus planktonic bacteria; format: cell-based; details: ATCC19606; Acinetobacter baumannii ATCC 19606; 16-20 h; mode of three independent experiments; read-out: MIC, Ab ATCC 19606
[10] = tested on: Escherichia coli ATCC 25922; test: as above; format: cell-based; details: ATCC25922; Escherichia coli ATCC 25922; 16-20 h; mode of three independent experiments; read-out: MIC, Ec ATCC 25922
[11] = tested on: Staphylococcus aureus ATCC 29213; test: as above; format: cell-based; details: ATCC29213; Staphylococcus aureus ATCC 29213; 16-20 h; mode of three independent experiments; read-out: MIC, Sa ATCC 29213
[12] = tested on: Pseudomonas aeruginosa ATCC 27853; test: as above; format: cell-based; details: ATCC27853; Pseudomonas aeruginosa ATCC 27853; 16-20 h; mode of three independent experiments; read-out: MIC, Pa ATCC 27853

With `COc1ccc2ncc(=O)n(CCNC3CCC4C(C3)OC(=O)N4c3ccc4c(n3)NC(=O)CO4)c2n1` (stereo in doubt) [Compound 43, (3aR,6R,7aR)-6-[(2-{6-methoxy-3-oxo-3H,4H-pyrido[2,3-b]pyrazin-4-yl}ethyl)amino]-3-{3-oxo-2H,3H,4H-pyrido[3,2-b][1,4]oxazin-6-yl}-octahydro-1,3-benzoxazol-2-one] the MIC [1] was less than 1 µg/mL, the MIC (E. coli MG1655) was less than 1 µg/mL and the MIC (E. coli NCTC 13476) was less than 1 µg/mL. For the same compound, the “Fold increase in MIC, E. coli MG1655 D87G” value (E. coli MG1655 D87G) was 0.5 fold, the MIC [2] was less than 1 µg/mL and the MIC [3] was less than 1 µg/mL. The MIC [4] was less than 1 µg/mL, the MIC [5] was less than 1 µg/mL and the MIC [6] was less than 1 µg/mL. The MIC [7] was less than 1 µg/mL, the IC50 [8] was greater than 100 µg/mL and the MIC (E. coli ATCC BAA-2452) was less than 1 µg/mL. The “Fold increase in MIC, E. coli MG1655 S83L” value (E. coli MG1655 S83L) was 1 fold, the MIC [9] was less than 1 µg/mL and the MIC [10] was less than 1 µg/mL. For the same compound, the MIC [11] was less than 1 µg/mL and the MIC [12] was less than 1 µg/mL.

In the case of `COc1ccc2ccc(=O)n(CCN[C@H]3CC[C@H]4[C@H](C3)OC(=O)N4c3ccc4c(n3)NC(=O)CO4)c2n1` [Compound 29, 1-(2-{[(3aS,6S,7aS)-2-oxo-3-{3-oxo-2H,3H,4H-pyrido[3,2-b][1,4]oxazin-6-yl}-octahydro-1,3-benzoxazol-6-yl]amino}ethyl)-7-methoxy-1,2-dihydro-1,8-naphthyridin-2-one], the MIC [1] is reported as less than 1 µg/mL, the MIC (E. coli MG1655) is reported as less than 1 µg/mL and the “Fold increase in MIC, E. coli MG1655 D87G” value (E. coli MG1655 D87G) is reported as 2 fold. The MIC [2] was less than 1 µg/mL, the MIC [3] was less than 1 µg/mL and the MIC [4] was less than 1 µg/mL. The MIC [5] was less than 1 µg/mL, the MIC [6] was less than 1 µg/mL and the MIC [7] was less than 1 µg/mL. The IC50 [8] was 10 to 100 µg/mL (≈ 19.7 to 197 µM), the MIC (E. coli ATCC BAA-2452) was less than 1 µg/mL and the “Fold increase in MIC, E. coli MG1655 S83L” value (E. coli MG1655 S83L) was 1 fold. It also gave an MIC [9] of less than 1 µg/mL, an MIC [10] of less than 1 µg/mL and an MIC [11] of less than 1 µg/mL. For the same compound, the MIC [12] was less than 1 µg/mL.

Compound `O=C1COc2ccc(N3C(=O)O[C@H]4C[C@@H](NCCn5c(=O)cnc6cc(F)c(F)cc65)CC[C@@H]43)nc2N1` [Compound 34, 1-(2-{[(3aS,6S,7aS)-2-oxo-3-{3-oxo-2H,3H,4H-pyrido[3,2-b][1,4]oxazin-6-yl}-octahydro-1,3-benzoxazol-6-yl]amino}ethyl)-6,7-difluoro-1,2-dihydroquinoxalin-2-one] has an MIC [1] of less than 1 µg/mL, an MIC (E. coli MG1655) of less than 1 µg/mL and an MIC (E. coli NCTC 13476) of less than 1 µg/mL. For the same compound, the “Fold increase in MIC, E. coli MG1655 D87G” value (E. coli MG1655 D87G) was 2 fold, the MIC [2] was less than 1 µg/mL and the MIC [3] was less than 1 µg/mL. For the same compound, the MIC [4] was less than 1 µg/mL, the MIC [5] was less than 1 µg/mL and the MIC [6] was less than 1 µg/mL. For the same compound, the MIC [7] was less than 1 µg/mL, the MIC (E. coli ATCC BAA-2452) was less than 1 µg/mL and the “Fold increase in MIC, E. coli MG1655 S83L” value (E. coli MG1655 S83L) was 1 fold. It also gave an MIC [9] of less than 1 µg/mL, an MIC [10] of less than 1 µg/mL and an MIC [11] of less than 1 µg/mL. It also gave an MIC [12] of 1 to 10 µg/mL (≈ 1.95 to 19.5 µM).

`N#Cc1cccc(-c2cccc(CN[C@@H]3CC[C@@H]4[C@@H](C3)OC(=O)N4c3ccc4c(n3)NC(=O)CO4)c2O)n1` [Compound 40, 6-[3-({[(3aR,6R,7aR)-2-oxo-3-{3-oxo-2H,3H,4H-pyrido[3,2-b][1,4]oxazin-6-yl}-octahydro-1,3-benzoxazol-6-yl]amino}methyl)-2-hydroxyphenyl]pyridine-2-carbonitrile] gave an MIC [1] of less than 1 µg/mL, an MIC (E. coli MG1655) of less than 1 µg/mL and an MIC (E. coli NCTC 13476) of less than 1 µg/mL. The “Fold increase in MIC, E. coli MG1655 D87G” value (E. coli MG1655 D87G) was 1 fold, the MIC [2] was less than 1 µg/mL and the MIC [3] was less than 1 µg/mL. It also gave an MIC [4] of less than 1 µg/mL, an MIC [5] of 1 to 10 µg/mL (≈ 1.95 to 19.5 µM) and an MIC [6] of less than 1 µg/mL. For the same compound, the MIC [7] was less than 1 µg/mL, the IC50 [8] was 10 to 100 µg/mL (≈ 19.5 to 195 µM) and the MIC (E. coli ATCC BAA-2452) was less than 1 µg/mL. The “Fold increase in MIC, E. coli MG1655 S83L” value (E. coli MG1655 S83L) was 1 fold, the MIC [9] was less than 1 µg/mL and the MIC [10] was less than 1 µg/mL. It also gave an MIC [11] of less than 1 µg/mL and an MIC [12] of less than 1 µg/mL.
